Measurements reported in publication PMC5301048, “Selection and early clinical evaluation of the brain‐penetrant 11β‐hydroxysteroid dehydrogenase type 1 (11β‐HSD1) inhibitor UE2343 (Xanamem™)” (British Journal of Pharmacology, 2017).
Read-outs that look alike come from different tables or passages of the source.

Tests used:
[1] = Single ascending dose study, pharmacokinetics; assay type: in vivo; settings: human; for half-life / Cmax / Tmax / CL renal: both sexes; for half-life / Cmax / Tmax: plasma; for Tmax: median (range); for CL renal: urine and plasma
Protocol: A double‐blind, randomized, placebo‐controlled single ascending dose study was carried out at Simbec Research Ltd, Merthyr Tydfil, UK. Each cohort consisted of six healthy male subjects and two females of non‐child bearing potential. Two male ‘dose leader’ subjects (1 active : 1 placebo) were dosed first in each cohort. The remainder of the cohort (5 active : 1 placebo) were dosed 24 h later. Dose cohorts were 2, 5, 10, 18, 25 and 35 mg. Safety, pharmacokinetic and pharmacodynamic assessments were made at pre‐determined time‐points during each part of the study. Dose escalation was dependent upon satisfactory review of the blinded safety (up to Day 6) and pharmacokinetic (up to 24 h post‐dose) data from the preceding cohort.
Laboratory evaluation of clinical safety parameters was carried out using standard validated methods. Measurement of plasma pharmacodynamic markers [adrenocorticotropic hormone (ACTH), cortisol, 4‐androstenedione, testosterone and dehydroepiandrosterone sulphate (DHEA‐s)] was carried out using commercially available kits. Each method was fully validated prior to analysis. Urinary steroid metabolites were measured according to established methods (Boonen et al., 2013). UE2343 levels in plasma, urine and CSF was determined by LC–MS/MS using fully validated methods.
The data and statistical analysis comply with the recommendations on experimental design and analysis in pharmacology (Curtis et al., 2015). Levels of probability, P < 0.05 were deemed to constitute the threshold for statistical significance. Pharmacokinetic parameters, except Tmax (time of maximum observed drug concentration), are given as mean ± coefficient of variation (CV%). Tmax is given as median ± range. For each of the pharmacodynamic parameters [ACTH, cortisol, adrenal androgens, tetrahydrocortisols (THFs)/tetrahydrocortisone (THE) ratio], the maximum % change from baseline for each subject was subjected to ANOVA. For selected data, an additional covariate factor for the baseline was also included in the ANOVA/analysis of covariance (ANCOVA) model. Associated P‐values <0.05 for each comparison have been presented.

[2] = Plasma protein binding, rat plasma; assay type: in vitro ADME; settings: mean ± SD [n]
[3] = Plasma protein binding, human plasma; assay type: in vitro ADME
Protocol: Plasma protein binding was determined using pooled human plasma according to the method described in WO2011135276 (Webster et al., 2011a).

CYP2C19 = biological target: T1, CYP2C19 (Homo sapiens, UniProt P33261); assay: Cytochrome P450 inhibition, CYP2C19; assay type: in vitro ADME; settings: human liver microsomes; read-out: CYP450 isoform 2C19 IC50
T1 construct: tissue Cyprotex Discovery Limited; host or cells: human liver microsomes
T1 sequence (P33261 whole entry, canonical isoform): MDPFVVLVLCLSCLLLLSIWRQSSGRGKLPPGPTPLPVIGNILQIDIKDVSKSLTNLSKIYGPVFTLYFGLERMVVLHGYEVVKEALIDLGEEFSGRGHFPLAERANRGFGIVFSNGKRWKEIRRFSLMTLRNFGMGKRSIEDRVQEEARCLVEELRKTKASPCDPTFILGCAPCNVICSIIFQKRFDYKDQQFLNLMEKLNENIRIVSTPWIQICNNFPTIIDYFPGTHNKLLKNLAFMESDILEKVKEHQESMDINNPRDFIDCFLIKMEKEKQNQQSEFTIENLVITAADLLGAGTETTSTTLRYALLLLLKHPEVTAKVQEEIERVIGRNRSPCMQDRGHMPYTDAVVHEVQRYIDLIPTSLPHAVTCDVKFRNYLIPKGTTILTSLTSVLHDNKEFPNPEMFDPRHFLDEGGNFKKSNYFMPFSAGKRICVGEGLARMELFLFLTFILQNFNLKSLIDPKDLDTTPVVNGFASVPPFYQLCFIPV
Protocol: Testing was performed by Cyprotex Discovery Limited, Cheshire, UK. Six test compound concentrations (0.4, 1, 4, 10, 40 and 100 μM; final DMSO concentration 0.25%, final microsome concentration 0.25 mg·mL^−1) were either pre‐incubated for 30 min in the absence and presence of NADPH or underwent a 0 min pre‐incubation with human liver microsomes. At the end of the pre‐incubation period, the probe substrate for each cytochrome P450 (CYP450) isoform (30 μM) and NADPH (1 mM) were then added (final DMSO concentration 0.3%), and the samples were incubated for 5 min at 37°C. Probe substrates were as follows: 1A2 – phenacetin, 2C9 – diclofenac, 2C19 – mephenytoin, 2D6 – dextromethorphan, 3A4 – midazolam and testosterone. Samples were subjected to LC–MS/MS analysis to determine metabolite concentrations. A decrease in the formation of the metabolite compared with vehicle control was used to calculate an IC50 value (test compound concentration which produces 50% inhibition) for each experimental condition.

human 11β‐HSD1 = biological target: T2, human 11β‐HSD1 (Homo sapiens, UniProt P28845); assay: Inhibition of human 11β-HSD1 in stably transfected HEK293 cells; assay type: cell-based
T2 construct: a construct containing the full‐length gene coding for the human 11β‐HSD1 enzyme; expressed in transfected cells; host or cells: HEK293
T2 sequence (P28845 whole entry): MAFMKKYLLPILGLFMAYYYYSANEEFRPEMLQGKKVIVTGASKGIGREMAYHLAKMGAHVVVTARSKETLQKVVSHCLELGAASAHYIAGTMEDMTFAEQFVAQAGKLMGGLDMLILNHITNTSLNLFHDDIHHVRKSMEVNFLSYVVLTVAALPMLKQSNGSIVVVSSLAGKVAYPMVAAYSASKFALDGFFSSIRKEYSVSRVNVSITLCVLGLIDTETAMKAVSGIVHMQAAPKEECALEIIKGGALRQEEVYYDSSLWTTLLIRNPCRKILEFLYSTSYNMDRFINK
Protocol: Inhibition of human 11β‐HSD1 was determined in HEK293 cells stably transfected with a construct containing the full‐length gene coding for the human 11β‐HSD1 enzyme according to the protocol described by Sooy et al., 2010.

[4] = single oral dose 10 mg, mean (CV%)
[5] = single oral dose 18 mg, mean (CV%)
[6] = single oral dose 25 mg, mean (CV%)
[7] = single oral dose 35 mg, mean (CV%)

Question: For `O=C(c1csc(-c2cn[nH]c2)c1)N1C2CCC1CC(O)(c1ncccn1)C2` (stereo not shown) [compound 4], which half-life ([1]; oral, single doses, range across doses) is on record?
Answer: 10.5 to 18.7 h

Question: What about the Cmax [1, 4] of the same molecule?
Answer: 40.4 ng/mL

Question: And the half-life [1, 4]?
Answer: 18.7 h

Question: And the Tmax ([1]; single oral dose 10 mg)?
Answer: 3.5 h

Question: What about the Cmax [1, 5] of the same molecule?
Answer: 136 ng/mL

Question: And the half-life [1, 5]?
Answer: 13.6 h

Question: And the Tmax ([1]; single oral dose 18 mg)?
Answer: 4 h

Question: And the Cmax [1, 6]?
Answer: 278 ng/mL

Question: And the half-life [1, 6]?
Answer: 10.5 h

Question: And the Tmax ([1]; single oral dose 25 mg)?
Answer: 4 h

Question: And the Cmax [1, 7]?
Answer: 329 ng/mL

Question: What about the half-life [1, 7] of the same molecule?
Answer: 11.4 h

Question: What about the Tmax ([1]; single oral dose 35 mg) of the same molecule?
Answer: 4 h

Question: What about the CL renal ([1]; oral, single doses, read-out: renal clearance (CLR)) of the same molecule?
Answer: < 2.17 mL/min

Question: What about the CL renal ([1]; single oral dose 10 mg, mean (CV%), read-out: CLR (renal clearance) (converted)) of the same molecule?
Answer: 1.17 mL/min

Question: What about the CL renal ([1]; single oral dose 18 mg, mean (CV%), read-out: CLR (renal clearance) (converted)) of the same molecule?
Answer: 2.67 mL/min

Question: What about the CL renal ([1]; single oral dose 25 mg, mean (CV%), read-out: CLR (renal clearance) (converted)) of the same molecule?
Answer: 2.17 mL/min

Question: And the CL renal ([1]; single oral dose 35 mg, mean (CV%), read-out: CLR (renal clearance) (converted))?
Answer: 2 mL/min

Question: What about the “Urinary excretion, % of the respective doses” value ([1]; single doses) of the same molecule?
Answer: ≤ 1.8%

Question: And the Plasma levels ([1]; single doses of 2 and 5 mg, in words)?
Answer: below the level of quantification

Question: And the “AUC0‐t” value [1, 4]?
Answer: 550 (90%) ng^.h·mL^−1

Question: And the “AUC0‐∞” value [1, 4]?
Answer: 856 (70%) ng^.h·mL^−1

Question: And the “Ae(0–120h) (%)” value [1, 4]?
Answer: 0.53 (85%)

Question: What about the “Ae(0–120h), amount excreted in urine” value [1, 4] of the same molecule?
Answer: 52.5 (85%) μg

Question: And the Oral clearance [1, 4]?
Answer: 18.5 (75%) L·h^−1

Question: What about the “AUC0‐t” value [1, 5] of the same molecule?
Answer: 2291 (87%) ng^.h·mL^−1

Question: And the “AUC0‐∞” value [1, 5]?
Answer: 2581 (84%) ng^.h·mL^−1

Question: And the “Ae(0–120h) (%)” value [1, 5]?
Answer: 1.67 (66%)

Question: And the “Ae(0–120h), amount excreted in urine” value [1, 5]?
Answer: 300 (66%) μg

Question: And the Oral clearance [1, 5]?
Answer: 14.5 (90%) L·h^−1

Question: What about the “AUC0‐t” value [1, 6] of the same molecule?
Answer: 3486 (39%) ng^.h·mL^−1

Question: What about the “AUC0‐∞” value [1, 6] of the same molecule?
Answer: 3825 (35%) ng^.h·mL^−1

Question: What about the “Ae(0–120h) (%)” value [1, 6] of the same molecule?
Answer: 1.75 (37%)

Question: What about the “Ae(0–120h), amount excreted in urine” value [1, 6] of the same molecule?
Answer: 438 (37%) μg

Question: And the Oral clearance [1, 6]?
Answer: 7.32 (38%) L·h^−1

Question: What about the “AUC0‐t” value [1, 7] of the same molecule?
Answer: 4016 (30%) ng^.h·mL^−1

Question: What about the “AUC0‐∞” value [1, 7] of the same molecule?
Answer: 4261 (29%) ng^.h·mL^−1

Question: And the “Ae(0–120h) (%)” value [1, 7]?
Answer: 1.43 (15%)

Question: And the “Ae(0–120h), amount excreted in urine” value [1, 7]?
Answer: 501 (15%) μg

Question: What about the Oral clearance [1, 7] of the same molecule?
Answer: 8.78 (28%) L·h^−1

Question: And the “Plasma protein binding (% unbound), rat” value [2]?
Answer: 26 ± 0 [2] % unbound

Question: And the “Plasma protein binding (% unbound), human” value ([3]; human plasma, mean ± SD [n])?
Answer: 30 ± 2 [2] % unbound

Question: What about the fraction unbound ([3]; human, pooled human plasma, read-out: bound to plasma proteins (converted)) of the same molecule?
Answer: 0.3

Question: What about the IC50 (CYP2C19) of the same molecule?
Answer: 1700 nM

Question: What about the IC50 (human 11β‐HSD1; HEK293 cell IC50 in ng·mL^−1, read-out: IC50 value (11β‐HSD1) expressed as mass concentration (converted)) of the same molecule?
Answer: 23.6 nM

Question: What about the IC50 (human 11β‐HSD1; HEK293 cells, mean ± SD [n], read-out: Human 11β‐HSD1 IC50 in HEK293 cells) of the same molecule?
Answer: 24 ± 15 nM
